The values that follow come from publication PMC6934184, “Selective DNA-PKcs inhibition extends the therapeutic index of localized radiotherapy and chemotherapy” (The Journal of Clinical Investigation, 2019).

For this assay, the target named is T1, PIK3C2B (PI3K-C2 beta) (Homo sapiens, UniProt O00750).
T1 construct: purchased Thermo Fisher Scientific (Life Technologies) SelectScreen
Put plainly: SelectScreen Adapta. The format is biochemical. The settings on record: ATP 10 µM. In a few lines: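 NU5455 was profiled across the SelectScreen Broad panel of kinase activity and binding assays. Z'LYTE reactions such as CSF1R ran at apparent Km ATP, while the Adapta CAMK1 assay used ATP listed as 10. Values are given as percent.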

T1 sequence (O00750 whole entry): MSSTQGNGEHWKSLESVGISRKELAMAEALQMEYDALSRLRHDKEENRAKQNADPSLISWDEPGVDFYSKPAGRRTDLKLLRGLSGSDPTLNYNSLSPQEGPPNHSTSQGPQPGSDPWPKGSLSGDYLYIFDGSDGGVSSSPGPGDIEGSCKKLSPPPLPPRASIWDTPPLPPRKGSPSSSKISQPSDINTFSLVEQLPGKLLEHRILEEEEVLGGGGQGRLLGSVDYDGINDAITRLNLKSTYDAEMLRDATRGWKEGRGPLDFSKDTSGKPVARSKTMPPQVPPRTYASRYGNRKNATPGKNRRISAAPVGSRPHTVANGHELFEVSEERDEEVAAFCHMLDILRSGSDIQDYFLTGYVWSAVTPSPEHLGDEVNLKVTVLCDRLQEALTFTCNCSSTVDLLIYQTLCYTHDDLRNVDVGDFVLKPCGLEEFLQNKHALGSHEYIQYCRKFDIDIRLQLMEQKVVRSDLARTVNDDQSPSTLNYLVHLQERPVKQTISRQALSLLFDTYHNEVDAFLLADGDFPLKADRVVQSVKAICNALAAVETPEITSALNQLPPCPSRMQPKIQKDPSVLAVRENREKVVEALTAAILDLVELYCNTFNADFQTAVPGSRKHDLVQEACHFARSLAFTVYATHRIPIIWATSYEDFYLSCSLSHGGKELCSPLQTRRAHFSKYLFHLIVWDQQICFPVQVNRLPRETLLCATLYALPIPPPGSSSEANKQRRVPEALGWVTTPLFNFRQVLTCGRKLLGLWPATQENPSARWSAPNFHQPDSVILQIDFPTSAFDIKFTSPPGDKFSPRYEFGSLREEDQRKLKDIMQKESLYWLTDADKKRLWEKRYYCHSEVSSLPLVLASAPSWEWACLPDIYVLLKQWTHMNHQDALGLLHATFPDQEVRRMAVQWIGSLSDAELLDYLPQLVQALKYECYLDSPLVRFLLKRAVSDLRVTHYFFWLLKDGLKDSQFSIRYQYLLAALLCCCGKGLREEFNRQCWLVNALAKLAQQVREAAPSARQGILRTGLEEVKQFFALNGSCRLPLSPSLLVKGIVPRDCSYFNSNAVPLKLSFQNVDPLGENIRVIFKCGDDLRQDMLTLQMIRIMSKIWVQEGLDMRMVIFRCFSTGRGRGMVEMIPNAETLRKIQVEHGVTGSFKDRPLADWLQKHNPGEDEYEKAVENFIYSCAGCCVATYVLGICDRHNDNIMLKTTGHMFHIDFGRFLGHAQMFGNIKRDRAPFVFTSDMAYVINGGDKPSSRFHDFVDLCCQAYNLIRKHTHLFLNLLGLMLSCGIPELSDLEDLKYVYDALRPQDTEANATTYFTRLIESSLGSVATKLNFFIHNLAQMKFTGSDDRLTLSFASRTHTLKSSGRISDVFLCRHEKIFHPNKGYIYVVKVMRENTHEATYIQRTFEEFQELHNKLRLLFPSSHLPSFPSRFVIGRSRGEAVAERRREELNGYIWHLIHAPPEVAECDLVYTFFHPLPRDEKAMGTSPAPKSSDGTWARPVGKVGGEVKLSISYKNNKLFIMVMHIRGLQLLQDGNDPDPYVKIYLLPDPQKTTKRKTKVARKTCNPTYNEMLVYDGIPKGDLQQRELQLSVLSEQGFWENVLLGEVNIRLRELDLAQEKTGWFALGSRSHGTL

Compound `CN(C(=O)CN1CCOCC1)c1ccc2sc3c(-c4cccc5c(=O)cc(N6CC7CCC(C6)O7)oc45)cccc3c2c1` [NU5455] displayed an inhibition at 1 µM of 28.9%.

As usually defined, the inhibition is the drop in the measured response relative to a control, in per cent. High values mean strong suppression, low ones little suppression.
